Data from EP2064211B1, “IMIDAZO[1,2-A]PYRIDINE HYDROXYMATE COMPOUNDS THAT ARE INHIBITORS OF HISTONE DEACETYLASE” (MEI Pharma, Inc., priority 2006, dated 2008).
Values after ≈ are worked out from the molar mass of the structure shown.

What was measured:
[1] = Measurement of microsomal stability; type: in vitro ADME; details: pooled human liver microsomes 1.0 mg/ml, test compound 5 µM, pH 7.4, incubation up to 60 min
Protocol: Metabolic stability measurements in vitro using liver microsomes aids in the prediction of in vivo hepatic clearance and compound stability towards phase I biotransformation reactions mediated by P450 isozymes.
Pooled human liver microsome (HLM) preparation was purchased from BD Gentest (BD BioSciences). The incubations consisted of test compound (5 µM) or control compound (Verapamil), NADPH-generating system solution A (25 mM NADP^+, 66 mM glucose-6-phosphate, 66 mM MgCl2 in H2O), NADPH-generating system solution B (40 U/ml glucose-6-phosphate dehydrogenase in 5 mM sodium citrate) and 1.0 mg/ml microsomal protein, respectively, in 100 mM potassium phosphate buffer (pH 7.4). Samples are incubated for 0, 5, 15, 30, 45, 60min. Reaction is terminated with ice-cold 80% acetonitrile and 20% DMSO. Samples are subsequently centrifuged at 4°C for 15 min at 2,000 rpm. 100 µL of the supernatant is transferred to the LC-MS plate for analysis. Before quantitative analysis, the compound is tuned in the LC/MS machine to get the optimized MS condition. Liquid chromatography is performed on a Luna C18 column (Phenomenex U.S.A, Torrance, CA) (2x50mm, […]). Percentage (%) remaining of compound (by area) of each time point is calculated with respect to time 0. Plot %remaining against time (min) to obtain the curve and use the Prism software to obtain the T1/2. […]

[2] = High Throughput Solubility Profiling (HTSP), kinetic solubility; type: physicochemical; details: phosphate buffer with 2.5% DMSO, aqueous buffer, kinetic from dmso stock, phosphate buffer (pH 7), final concentration 250 µM
Protocol: Determining compound aqueous solubility has become an essential early measurement in the drug discovery process. Poor aqueous solubility can cause problems in many in vitro testing techniques, leading to unreliable results. The standard way to determine the solubility of a compound is to use the shake-flask solubility method. However, this method is inherently low-throughput and labour intensive.
10mM compound stock in DMSO was dissolved in phosphate buffer (pH 7) to give a final concentration of 250µM in 96-well plates in triplicate. The plate was shaken for 1.5 hours at 450 rpm and left to stand for 2 hours to allow the compound to reach its saturation point. The plate was then centrifuged at 2000g for 15 minutes. The supernatant was transferred and mixed with 20µL of DMSO in another 96-well plate. A calibration curve at 100µM and 250µM was prepared from the 10mM stock by dissolving in 60% methanol/phosphate buffer solution. LC/MS was used in the analysis and the area counts were obtained by using the Quantify Method Editor. Using the three point standard curve including zero, the results for solubility were reported. […]

[3] = system: Colo205 cells; test: Cell-based proliferation assay for determination of GI50 values (CyQUANT); set-up: species or system Human; details: Homo sapiens, COLO 205, compound treatment 96 h, concentration for 50% inhibition of cell growth, read-out: Gl50 (Colo205)
Protocol: Human cancer cell lines (e.g. Colo205) were obtained from ATCC. Colo205 cells were cultivated in RPMI 1640 containing 2 mM L-Glutamine, 5% FBS, 1.0 mM Na Pyruvate. Colo205 cells were seeded in 96-wells plate at 5000 cells per well. The plates were incubated at 37°C, 5% CO2, for 24 h. Cells were treated with compounds at various concentrations for 96 h. Cell growth was then monitored using CyQUANT® cell proliferation assay (Invitrogen Pte Ltd). Dose response curves were plotted to determine Gl50 values for the compounds using XL-fit (ID Business Solution, Emeryville, CA). Gl50 is defined as the concentration of compound required for 50% inhibition of cell growth.

[4] = biological target: T1, HDAC1 enzyme (Homo sapiens, UniProt Q13547); test: In vitro HDAC assay for determination of IC50 values (BIOMOL fluorescent-based HDAC activity assay); type: biochemical; details: recombinant GST-HDAC1, 500 uM Flur de lys substrate, room temperature 2 h; read-out: IC50 (HDAC 1)
T1 construct: Amplification of human HDAC1 coding region from this cDNA library was cloned separately into the baculovirus expression pDEST20 vector; made in house; host or cells: SF9 insect cells (baculovirus, pDEST20 vector)
Protocol: Human cDNA library was prepared using cultured SW620 cells. Amplification of human HDAC1 coding region from this cDNA library was cloned separately into the baculovirus expression pDEST20 vector (GATEWAY Cloning Technology, Invitrogen Pte Ltd). The pDEST20-HDAC1 construct was confirmed by DNA sequencing. Recombinant baculovirus was prepared using the Bac-To-Bac method following the manufacturer's instruction (Invitrogen Pte Ltd).
Expression of GST-HDAC1 was done by infecting SF9 cells (Invitrogen Pte Ltd) with pDEST20-HDAC1 baculovirus at MOI=1 for 48 h. Soluble cell lysate was incubated with pre-equilibrated Glutathione Sepharose 4B beads (Amersham) at 4°C for 2 h. The beads were washed with PBS buffer for 3 times. The GST-HDAC1 protein was eluted by elution buffer containing 50 mM Tris, pH8.0, 150mM NaCl, 1% Triton X-100 and 10mM or 20mM reduced Glutathione. The purified GST-HDAC1 protein was dialyzed with HDAC storage buffer containing 10mM Tris, pH7.5, 100mM NaCl and 3mM MgCl2. 20% Glycerol was added to purified GST-HDAC1 protein before storage at -80°C.
The assay has been carried out in 96 well format and the BIOMOL fluorescent-based HDAC activity assay has been applied. The reaction composed of assay buffer, containing 25 mM Tris pH 7.5, 137 mM NaCl, 2.7 mM KCl, 1 mM MgCl2, 1 mg/ml BSA, tested compounds, an appropriate concentration of HDAC1 enzyme, 500 uM Flur de lys generic substrate for HDAC1 enzyme and subsequently was incubated at room temperature for 2 h. Flur de lys Developer was added and the reaction was incubated for 10 min. Briefly, deacetylation of the substrate sensitizes it to the developer, which then generates a fluorophore. The fluorophore is excited with 360 nm light and the emitted light (460 nm) is detected on a fluorometric plate reader (Tecan Ultra Microplate detection system, Tecan Group Ltd.).
The analytical software, Prism 4.0 (GraphPad Software Inc) has been used to generate IC50 from a series of data. IC50 is defined as the concentration of compound required for 50% inhibition of HDAC enzyme activity.

T1 sequence (Q13547 whole entry): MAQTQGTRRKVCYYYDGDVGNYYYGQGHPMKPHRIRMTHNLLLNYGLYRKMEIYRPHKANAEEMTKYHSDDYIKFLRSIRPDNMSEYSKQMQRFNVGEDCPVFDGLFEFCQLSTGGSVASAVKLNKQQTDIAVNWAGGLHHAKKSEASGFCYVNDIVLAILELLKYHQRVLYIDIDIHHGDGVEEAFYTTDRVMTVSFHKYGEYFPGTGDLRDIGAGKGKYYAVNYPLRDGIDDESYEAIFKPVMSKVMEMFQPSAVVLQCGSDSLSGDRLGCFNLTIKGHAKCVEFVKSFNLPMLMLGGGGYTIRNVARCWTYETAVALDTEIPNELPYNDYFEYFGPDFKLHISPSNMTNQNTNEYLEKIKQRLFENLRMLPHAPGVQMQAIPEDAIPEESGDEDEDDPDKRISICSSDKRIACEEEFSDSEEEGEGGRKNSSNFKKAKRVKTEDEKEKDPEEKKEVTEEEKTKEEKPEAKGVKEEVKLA

Compound	half-life at 5 µM [1]	solubility [2]	IC50 [3]	IC50 [4]
CCCCN(CC)Cc1c(C)nc2cc(C=CC(=O)NO)ccn12 [Compound 29, 3-{3-[(Butyl-ethyl-amino)-methyl]-2-methyl-imidazo[1,2-a]pyridin-7-yl}-N-hydroxy-acrylamide]	0.983 h		180 nM	30 nM
CCN(CCC(C)C)Cc1c(C)nc2cc(C=CC(=O)NO)ccn12 [Compound 49, 3-(3-{[Ethyl-(3-methyl-butyl)-amino]-methyl}-2-methyl-imidazo[1,2-a]pyridin-7-yl)-N-hydroxy-acrylamide]	> 1 h	> 250 µM	110 nM	
CCCCN(CC)Cc1c(CC)nc2cc(C=CC(=O)NO)ccn12 [Compound 63, 3-{3-[(Butyl-ethyl-amino)-methyl]-2-ethyl-imidazo[1,2-a]pyridin-7-yl}-N-hydroxy-acrylamide]	> 1 h		180 nM	50 nM
CCc1nc2cc(C=CC(=O)NO)ccn2c1CN(CC)CCC(C)C [Compound 64, 3-(2-Ethyl-3-{[ethyl-(3-methyl-butyl)-amino]-methyl}-imidazo[1,2-a]pyridin-7-yl)-N-hydroxy-acrylamide]	> 1 h		100 nM	20 nM
CCCCN(CC)Cc1c(CCC(C)C)nc2cc(C=CC(=O)NO)ccn12 [Compound 66, 3-[3-[(Butyl-ethyl-amino)-methyl]-2-(3-methyl-butyl)-imidazo[1,2-a]pyridin-7-yl]-N-hydroxy-acrylamide]			160 nM	40 nM
CCN(CCC(C)C)Cc1c(CCC(C)C)nc2cc(/C=C/C(=O)NO)ccn12 [Compound 67, 3-[3-{[Ethyl-(3-methyl-butyl)-amino]-methy}-2-(3-methyl-butyl)-imidazo[1,2-a]pyridin-7-yl]-N-hydroxy-acrylamide]			130 nM	30 nM
CCN(CCC(C)(C)C)Cc1c(CCC(C)C)nc2cc(C=CC(=O)NO)ccn12 [Compound 68, 3-[3-{[(3,3-Dimethyl-butyl)-ethyl-amino]-methyl}-2-(3-methyl-butyl)-imidazo[1,2-a]pyridin-7-yl]-N-hydroxy-acrylamide]			130 nM	40 nM

Continued by falling IC50 [3], values first:

half-life at 5 µM [1]	solubility [2]	IC50 [3]	IC50 [4]	Compound
> 1 h	168 µM (≈ 55.5 µg/mL)	180 nM	40 nM	CCCc1nc2cc(C=CC(=O)NO)ccn2c1CNC(C)(C)C [Compound 48, 3-[3-(tert-Butylamino-methyl)-2-propyl-imidazo[1,2-a]pyridin-7-yl]-N-hydroxy-acrylamide]
0.75 h		160 nM	50 nM	CCN(CCC(C)(C)C)Cc1c(C)nc2cc(C=CC(=O)NO)ccn12 [Compound 50, 3-(3-{[(3,3-Dimethyl-butyl)-ethyl-amino]-methyl}-2-methyl-imidazo[1,2-a]pyridin-7-yl)-N-hydroxy-acrylamide]
> 1 h	200 µM (≈ 68.9 µg/mL)	140 nM	20 nM	CCCCc1nc2cc(C=CC(=O)NO)ccn2c1CNC(C)(C)C [Compound 5, 3-[2-Butyl-3-(tert-butylamino-methyl)-imidazo[1,2-a]pyridin-7-yl]-N-hydroxy-acrylamide]
> 1 h		100 nM	20 nM	CC(C)CCc1nc2cc(C=CC(=O)NO)ccn2c1CNC(C)(C)C [Compound 65, 3-[3-(tert-Butylamino-methyl)-2-(3-methyl-butyl)-imidazo[1,2-a]pyridin-7-yl]-N-hydroxy-acrylamide]
